Data as given in patent US8129368B2, “5,6-dihydro-1H-pyridin-2-one compounds” (priority 2008, dated 2012).
Read-outs that look alike come from different tables or passages of the source.

Tested on: HCV Huh-luc/neo-ET replicon cells
Assay: Luciferase-Based HCV Replicon Assay (EC50 (1b))
Assay type: cell-based
Details: Hepatitis C virus
Description: Luciferase-Based HCV Replicon Assay Protocol (EC50 (1b))
The cell culture component of the assay is performed essentially as described by Bartenschlager et al., Hepatology 2002, 35, 694-703, wherein exponentially growing HCV Huh-luc/neo-ET replicon cells were seeded at 6×10^3 cells/well in 96 well assay plate. 24 hours later the cells were treated with various concentrations of compound or combination of compounds in triplicate using both fixed ratios and checkerboard matrices of test agents and cultured for 72 hours. The luciferase activity in the wells was determined using Bright-Glo reagent (Promega, Madison, Wis.) with a luminometer (Wallac 1420 Multilabel HTS Counter Victor 2). The background control was replicon cells treated with 100 nM BILN-2061, an inhibitor of the HCV protease. % Inhibition was determined for each compound concentration in relation to the negative (no compound) control to calculate the EC50(1b).

[1] = Huh-luc/neo-ET, 72 h, read-out: EC50 (1b)
[2] = Huh-luc/neo-ET, 72 h, read-out: EC50(1b) concentration
[3] = HCV Huh-luc/neo-ET replicon cells, 72 hours, luciferase activity, read-out: EC50 (1b)
[4] = HCV Huh-luc/neo-ET replicon cells, 72 hours, luciferase activity, read-out: EC50(1b) concentration

Row | Structure (SMILES) | EC50 [1] [nM] | EC50 [2] [nM] | EC50 [3] [nM] | EC50 [4] [nM]
1 | CS(=O)(=O)Nc1ccc2c(c1)S(=O)(=O)NC(C1=C(O)[C@@H]3[C@@H]4CC[C@@H](C4)[C@@H]3N(Cc3ccccc3)C1=O)=N2 [Example 20] | 5 to 25 | < 25 | – | –
2 | CS(=O)(=O)Nc1ccc2c(c1)S(=O)(=O)NC(C1=C(O)[C@@H]3[C@@H]4CC[C@@H](C4)[C@@H]3N(Cc3ccc(F)c(F)c3)C1=O)=N2 [Example 23, N-{3-[(1S,2S,7R,8R)-3-(3,4-Difluoro-benzyl)-6-hydroxy-4-oxo-3-aza-tricyclo[6.2.1.0^2,7]undec-5-en-5-yl]-1,1-dioxo-1,2-dihydro-1λ^6-benzo[1,2,4]thiadiazin-7-yl}-methanesulfonamide] | 5 to 25 | < 25 | – | –
3 | COc1cc(CN2C(=O)C(C3=NS(=O)(=O)c4cc(NS(C)(=O)=O)ccc4N3)=C(O)[C@@H]3C4CCC(CC4)[C@@H]32)ccc1F [Example 7, N-{3-[(2S,7R)-3-(4-Fluoro-3-methoxy-benzyl)-6-hydroxy-4-oxo-3-aza-tricyclo[6.2.2.0^2,7]dodec-5-en-5-yl]-1,1-dioxo-1,4-dihydro-1λ^6-benzo[1,2,4]thiadiazin-7-yl}-methanesulfonamide] | – | – | < 5 | < 25
4 | CS(=O)(=O)Nc1ccc2c(c1)S(=O)(=O)N=C(C1=C(O)C3C4CCC(C4)C3N(Cc3ccc(F)c(Cl)c3)C1=O)N2 [Example 2, N-{3-[(1S,2S,7R,8R)-3-(Chloro-4-fluoro-benzyl)-6-hydroxy-4-oxo-3-aza-tricyclo[6.2.1.0^2,7]undec-5-en-5-yl]-1,1-dioxo-1,4-dihydro-1λ^6-benzo[1,2,4]thiadiazin-7-yl}-methanesulfonamide] | < 5 | < 25 | – | –
5 | CS(=O)(=O)Nc1ccc2c(c1)S(=O)(=O)NC(C1=C(O)[C@@H]3[C@H]4CC[C@H](C4)[C@@H]3N(Cc3ccc(F)c(F)c3F)C1=O)=N2 [Example 24, N-{3-[(1R,2S,7R,8S)-6-Hydroxy-4-oxo-3-(2,3,4-trifluoro-benzyl)-3-aza-tricyclo[6.2.1.0^2,7]undec-5-en-5-yl]-1,1-dioxo-1,2-dihydro-1λ^6-benzo[1,2,4]thiadiazin-7-yl}-methanesulfonamide] | – | – | 5 to 25 | < 25
6 | Cc1ccccc1CN1C(=O)C(C2=Nc3ccc(NS(C)(=O)=O)cc3S(=O)(=O)N2)=C(O)[C@@H]2C3CCC(CC3)[C@@H]21 [Example 17, N-{3-[(2S,7R)-6-Hydroxy-3-(2-methyl-benzyl)-4-oxo-3-aza-tricyclo[6.2.2.0^2,7]dodec-5-en-5-yl]-1,1-dioxo-1,2-dihydro-1λ^6-benzo[1,2,4]thiadiazin-7-yl}-methanesulfonamide] | – | – | 5 to 25 | < 25
7 | Cc1cc(CN2C(=O)C(C3=NS(=O)(=O)c4cc(NS(C)(=O)=O)ccc4N3)=C(O)[C@@H]3C4CCC(CC4)[C@@H]32)ccc1F [Example 11, N-{3-[(2S,7R)-3-(4-Fluoro-3-methyl-benzyl)-6-hydroxy-4-oxo-3-aza-tricyclo[6.2.2.0^2,7]dodec-5-en-5-yl]-1,1-dioxo-1,4-dihydro-1λ^6-benzo[1,2,4]thiadiazin-7-yl}-methanesulfonamide] | – | – | < 5 | < 25
8 | CS(=O)(=O)Nc1ccc2c(c1)S(=O)(=O)NC(C1=C(O)[C@@H]3[C@@H]4CC[C@@H](C4)[C@@H]3N(CC3(C(F)(F)F)CC3)C1=O)=N2 [Example 22, N-{3-[(1S,2S,7R,8R)-6-Hydroxy-4-oxo-3-(1-trifluoromethyl-cyclopropylmethyl)-3-aza-tricyclo[6.2.1.0^2,7]undec-5-en-5-yl]-1,1-dioxo-1,2-dihydro-1λ^6-benzo[1,2,4]thiadiazin-7-yl}-methanesulfonamide] | – | – | 5 to 25 | < 25
9 | CS(=O)(=O)Nc1ccc2c(c1)S(=O)(=O)N=C(C1=C(O)[C@@H]3C4CCC(CC4)[C@@H]3N(Cc3ccccc3Br)C1=O)N2 [Example 6, N-{3-[(2S,7R)-3-(2-Bromo-benzyl)-6-hydroxy-4-oxo-3-aza-tricyclo[6.2.2.0^2,7]dodec-5-en-5-yl]-1,1-dioxo-1,4-dihydro-1λ^6-benzo[1,2,4]thiadiazin-7-yl}-methanesulfonamide] | – | – | < 5 | < 25
10 | CS(=O)(=O)Nc1ccc2c(c1)S(=O)(=O)NC(C1=C(O)[C@@H]3C4CCC(CC4)[C@@H]3N(CC3CCCCC3)C1=O)=N2 [Example 15, N-{3-[(2S,7R)-3-Cyclohexylmethyl-6-hydroxy-4-oxo-3-aza-tricyclo[6.2.2.0^2,7]dodec-5-en-5-yl]-1,1-dioxo-1,2-dihydro-1λ^6-benzo[1,2,4]thiadiazin-7-yl}-methanesulfonamide] | – | – | 5 to 25 | < 25
11 | CS(=O)(=O)Nc1ccc2c(c1)S(=O)(=O)N=C(C1=C(O)[C@@H]3[C@H]4CC[C@H](C4)[C@@H]3N(Cc3ccc(F)cc3Cl)C1=O)N2 [Example 1, (1R,2S,7R,8S)—N-{3-[3-(2-Chloro-4-fluoro-benzyl)-6-hydroxy-4-oxo-3-aza-tricyclo[6.2.1.0^2,7]undec-5-en-5-yl]-1,1-dioxo-1,4-dihydro-1λ^6-benzo[1,2,4]thiadiazin-7-yl}-methanesulfonamide] | – | – | < 5 | < 25
12 | CS(=O)(=O)Nc1ccc2c(c1)S(=O)(=O)NC(C1=C(O)[C@@H]3[C@H]4CC[C@H](C4)[C@@H]3N(Cc3ccsc3)C1=O)=N2 [Example 25, N-{3-[(1R,2S,7R,8S)-6-Hydroxy-4-oxo-3-thiophen-3-ylmethyl-3-aza-tricyclo[6.2.1.0^2,7]undec-5-en-5-yl]-1,1-dioxo-1,2-dihydro-1λ^6-benzo[1,2,4]thiadiazin-7-yl}-methanesulfonamide] | – | – | 5 to 25 | < 25
13 | CS(=O)(=O)Nc1ccc2c(c1)S(=O)(=O)NC(C1=C(O)[C@@H]3[C@H]4CC[C@H](C4)[C@@H]3N(CC3CCCCC3)C1=O)=N2 [Example 28] | – | – | 5 to 25 | < 25
14 | CS(=O)(=O)Nc1ccc2c(c1)S(=O)(=O)N=C(C1=C(O)[C@@H]3C4CCC(CC4)[C@@H]3N(Cc3ccc(F)c(Cl)c3)C1=O)N2 [Example 8, N-{3-[(2S,7R)-3-(3-Chloro-4-fluoro-benzyl)-6-hydroxy-4-oxo-3-aza-tricyclo[6.2.2.0^2,7]dodec-5-en-5-yl]-1,1-dioxo-1,4-dihydro-1λ^6-benzo[1,2,4]thiadiazin-7-yl}-methanesulfonamide] | – | – | < 5 | < 25
15 | COc1cccc(CN2C(=O)C(C3=NS(=O)(=O)c4cc(NS(C)(=O)=O)ccc4N3)=C(O)[C@@H]3C4CCC(CC4)[C@@H]32)c1 [Example 3, N-{3-[(2S,7R)-6-Hydroxy-3-(3-methoxy-benzyl)-4-oxo-3-aza-tricyclo[6.2.2.0^2,7]dodec-5-en-5-yl]-1,1-dioxo-1,4-dihydro-1λ^6-benzo[1,2,4]thiadiazin-7-yl}-methanesulfonamide] | – | – | < 5 | < 25
16 | CS(=O)(=O)Nc1ccc2c(c1)S(=O)(=O)NC(C1=C(O)[C@@H]3C4CCC(CC4)[C@@H]3N(Cc3ccccc3)C1=O)=N2 [Example 12, N-{3-[(2S,7R)-3-Benzyl-6-hydroxy-4-oxo-3-aza-tricyclo[6.2.2.0^2,7]dodec-5-en-5-yl]-1,1-dioxo-1,2-dihydro-1λ^6-benzo[1,2,4]thiadiazin-7-yl}-methanesulfonamide] | – | – | < 5 | < 25
17 | CS(=O)(=O)Nc1ccc2c(c1)S(=O)(=O)NC(C1=C(O)[C@@H]3[C@H]4CC[C@H](C4)[C@@H]3N(Cc3cccc(F)c3)C1=O)=N2 [Example 21, N-{3-[(1R,2S,7R,8S)-3-(3-Fluoro-benzyl)-6-hydroxy-4-oxo-3-aza-tricyclo[6.2.1.0^2,7]undec-5-en-5-yl]-1,1-dioxo-1,2-dihydro-1λ^6-benzo[1,2,4]thiadiazin-7-yl}-methanesulfonamide] | – | – | 5 to 25 | < 25
18 | CS(=O)(=O)Nc1ccc2c(c1)S(=O)(=O)NC(C1=C(O)[C@@H]3[C@@H]4CC[C@@H](C4)[C@@H]3N(Cc3cccc(F)c3)C1=O)=N2 [Example 30] | – | – | 5 to 25 | < 25
19 | CS(=O)(=O)Nc1ccc2c(c1)S(=O)(=O)NC(C1=C(O)[C@@H]3C4CCC(CC4)[C@@H]3N(Cc3ccc(F)c(F)c3F)C1=O)=N2 [Example 18, N-{3-[(2S,7R)-6-Hydroxy-4-oxo-3-(2,3,4-trifluoro-benzyl)-3-aza-tricyclo[6.2.2.0^2,7]dodec-5-en-5-yl]-1,1-dioxo-1,2-dihydro-1λ^6-benzo[1,2,4]thiadiazin-7-yl}-methanesulfonamide] | – | – | 5 to 25 | < 25
20 | CS(=O)(=O)Nc1ccc2c(c1)S(=O)(=O)NC(C1=C(O)C3C4CC(C5CC54)C3N(Cc3ccc(F)cc3)C1=O)=N2 (racemic) [Example 13, (rac-di-exo,di-exo)-N-{3-[3-(4-Fluoro-benzyl)-6-hydroxy-4-oxo-3-aza-tetracyclo[6.3.1.0^2,7.0^9,11]dodec-5-en-5-yl]-1,1-dioxo-1,2-dihydro-1λ^6-benzo[1,2,4]thiadiazin-7-yl}-methanesulfonamide] | – | – | < 5 | < 25
21 | CS(=O)(=O)Nc1ccc2c(c1)S(=O)(=O)NC(C1=C(O)[C@@H]3[C@H]4CC[C@H](C4)[C@@H]3N(Cc3cccs3)C1=O)=N2 [Example 27, N-{3-[(1R,2S,7R,8S)-6-Hydroxy-4-oxo-3-thiophen-2-ylmethyl-3-aza-tricyclo[6.2.1.0^2,7]undec-5-en-5-yl]-1,1-dioxo-1,2-dihydro-1λ^6-benzo[1,2,4]thiadiazin-7-yl}-methanesulfonamide] | – | – | 5 to 25 | < 25
